Where a name gives a salt, the structure may show the parent alone. Read-outs that look alike come from different tables or passages of the source.
Assays:
[1] = molecular target: Jarid1A (Homo sapiens (Human), UniProt P29375); test: Jarid1A in vitro enzyme inhibition assay (TR-FRET); assay type: biochemical
[2] = molecular target: Jarid1B (Homo sapiens (Human), UniProt Q9UGL1); test: Jarid1B in vitro enzyme inhibition assay (TR-FRET); assay type: biochemical
[3] = molecular target: JMJD2C (Homo sapiens (Human), UniProt Q9H3R0); test: JMJD2C in vitro enzyme inhibition assay (TR-FRET); assay type: biochemical
Chain of JMJD2C (Q9H3R0 2-372): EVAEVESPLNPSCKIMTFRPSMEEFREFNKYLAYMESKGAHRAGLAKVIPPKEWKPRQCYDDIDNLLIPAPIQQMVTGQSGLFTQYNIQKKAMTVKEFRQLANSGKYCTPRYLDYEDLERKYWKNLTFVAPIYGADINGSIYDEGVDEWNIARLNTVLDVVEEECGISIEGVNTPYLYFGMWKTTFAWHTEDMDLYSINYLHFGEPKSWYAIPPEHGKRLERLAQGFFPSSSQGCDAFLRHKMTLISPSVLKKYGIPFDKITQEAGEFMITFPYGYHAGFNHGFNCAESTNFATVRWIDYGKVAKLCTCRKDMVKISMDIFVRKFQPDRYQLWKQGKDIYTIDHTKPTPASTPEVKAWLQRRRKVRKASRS

[4] = system: KDM5A/B; test: In vitro cell-based assay: tri-methyl H3K4 immuno-blotting in ZR-75-1 breast cancer cells
Experimental: This quantitative immuno-blotting assay measures the amount tri-methylated histone H3 at amino acid Lysine number 4, a specific substrate […] of the direct enzymatic activity of the histone demethylases KDM5A and KDM5B from extracts of the ZR-75-1 breast cancer cell line.
This assay is a fluorometric immunoassay for the quantification of tri-methyl H3K4 extracted from cells treated with test compound and is used as a measure of the cellular inhibition of KDM5A/B.
Extracts were prepared containing all of the cellular histone material using detergent based lysis and sonication methods. These lysates were subsequently normalized for total protein content using a colorimetric bicinchonic acid assay (MicroBCA Pierce/Thermo Scientific). Normalized cell extracts were then subjected to typical immuno-blotting procedures using NuPage reagents (Life Technologies). Electrophoretically separated histones were then transferred and immobilized using polyvinylidene difluoride membrane (Immobilon-FL Millipore). The amount of tri-methylated lysine 4 of histone H3 was detected using an antibody specific to the tri-methylated state (Cell Signaling Technologies) and quantified on an infrared imager using a densitometry software package (Odyssey CLx, Image Studio, Li-Cor). This background subtracted densitometry value was reported as a ration of the GAPDH amount for that sample and then calculated as a percent of the DMSO treated sample. The software package XL-fit (IDBS) was then used to calculate a relative IC50 value for the dilution series of a given test compound according to the equation: fit=(D+((Vmax*(x^n))/((x^n)+(Km^n)))).

[5] = 72 hours, read-out: Cellular IC50
[6] = read-out: Cellular IC50, 72 hours

Chain of Jarid1A (P29375 1-1090): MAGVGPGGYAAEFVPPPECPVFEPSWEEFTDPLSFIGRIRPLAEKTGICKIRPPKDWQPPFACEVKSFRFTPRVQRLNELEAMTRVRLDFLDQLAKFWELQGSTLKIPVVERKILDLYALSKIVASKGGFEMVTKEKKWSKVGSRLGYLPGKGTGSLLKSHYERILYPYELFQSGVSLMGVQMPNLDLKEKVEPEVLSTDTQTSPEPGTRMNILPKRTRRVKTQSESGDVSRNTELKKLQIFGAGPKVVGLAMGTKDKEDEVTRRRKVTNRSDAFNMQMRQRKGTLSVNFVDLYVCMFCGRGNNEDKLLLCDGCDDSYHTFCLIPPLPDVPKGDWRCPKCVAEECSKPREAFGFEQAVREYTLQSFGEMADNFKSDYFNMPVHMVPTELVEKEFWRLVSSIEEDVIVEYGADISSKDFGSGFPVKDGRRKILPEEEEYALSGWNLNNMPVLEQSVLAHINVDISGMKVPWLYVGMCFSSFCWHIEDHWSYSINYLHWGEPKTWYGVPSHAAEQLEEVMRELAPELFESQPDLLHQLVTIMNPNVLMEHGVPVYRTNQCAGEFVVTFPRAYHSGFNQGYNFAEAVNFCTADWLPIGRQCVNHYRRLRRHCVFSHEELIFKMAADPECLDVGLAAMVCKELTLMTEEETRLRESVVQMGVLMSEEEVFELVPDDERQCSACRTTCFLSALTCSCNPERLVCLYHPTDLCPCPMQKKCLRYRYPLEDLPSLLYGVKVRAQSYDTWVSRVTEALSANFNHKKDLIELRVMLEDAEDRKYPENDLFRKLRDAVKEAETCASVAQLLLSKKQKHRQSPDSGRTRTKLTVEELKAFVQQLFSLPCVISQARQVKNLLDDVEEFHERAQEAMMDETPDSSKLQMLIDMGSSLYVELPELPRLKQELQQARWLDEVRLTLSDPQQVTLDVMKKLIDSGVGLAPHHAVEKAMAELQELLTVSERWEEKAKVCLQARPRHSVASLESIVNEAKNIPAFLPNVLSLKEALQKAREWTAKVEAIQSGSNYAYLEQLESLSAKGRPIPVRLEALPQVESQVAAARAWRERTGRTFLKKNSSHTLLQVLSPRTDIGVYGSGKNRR
Chain of Jarid1B (Q9UGL1 2-751): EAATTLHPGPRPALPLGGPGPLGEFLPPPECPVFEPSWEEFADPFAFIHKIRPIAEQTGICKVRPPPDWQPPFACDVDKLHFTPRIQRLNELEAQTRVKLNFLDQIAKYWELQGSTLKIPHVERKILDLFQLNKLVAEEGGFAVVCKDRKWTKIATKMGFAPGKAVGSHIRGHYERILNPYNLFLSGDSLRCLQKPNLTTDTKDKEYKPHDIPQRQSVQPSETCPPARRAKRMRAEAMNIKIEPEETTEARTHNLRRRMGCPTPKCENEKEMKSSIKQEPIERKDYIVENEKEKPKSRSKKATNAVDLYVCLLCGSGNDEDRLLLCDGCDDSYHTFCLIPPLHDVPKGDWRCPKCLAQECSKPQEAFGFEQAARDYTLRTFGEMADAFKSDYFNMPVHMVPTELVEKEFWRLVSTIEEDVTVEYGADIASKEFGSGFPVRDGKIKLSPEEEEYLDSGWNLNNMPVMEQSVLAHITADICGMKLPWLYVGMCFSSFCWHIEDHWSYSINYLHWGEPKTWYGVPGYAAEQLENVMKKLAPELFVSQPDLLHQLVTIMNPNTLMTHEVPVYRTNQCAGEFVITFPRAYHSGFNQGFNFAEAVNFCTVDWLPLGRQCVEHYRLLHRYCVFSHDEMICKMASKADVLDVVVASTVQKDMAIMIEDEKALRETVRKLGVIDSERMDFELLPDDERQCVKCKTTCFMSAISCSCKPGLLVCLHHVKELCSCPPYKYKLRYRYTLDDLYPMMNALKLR

Row | IC50 [1] | IC50 [2] | IC50 [3] | IC50 [4, 5] | Structure (SMILES) | IC50 [4, 6]
1 | < 100 nM | < 100 nM | < 100 nM | 1000 to 10000 nM | O=C(O)c1ccncc1Nc1nn(C2CCOC2)c2ccc(F)cc12 (centres unmarked) [Example 54, 3-{[5-fluoro-1-(tetrahydrofuran-3-yl)-1H-indazol-3-yl]amino}pyridine-4-carboxylic acid] | –
2 | < 100 nM | < 100 nM | < 100 nM | – | O=C(O)c1ccncc1Nc1nn(CCCCCO)c2ccc(F)cc12 [Example 44, 3-{[5-fluoro-1-(5-hydroxypentyl)-1H-indazol-3-yl]amino}pyridine-4-carboxylic acid] | –
3 | < 100 nM | < 100 nM | < 100 nM | – | N#CNC(=O)c1ccncc1Nc1nn(CCN2CCCC2)c2ccc(F)cc12 [Example 77, N-cyano-3-({5-fluoro-1-[2-(pyrrolidin-1-yl)ethyl]-1H-indazol-3-yl}amino)pyridine-4-carboxamide] | –
4 | < 100 nM | < 100 nM | < 100 nM | 1000 to 10000 nM | O=C(O)c1ccncc1Nc1nn([C@H]2CCOC2)c2ccc(F)cc12 [Example 66, 3-({5-fluoro-1-[(3S)-tetrahydrofuran-3-yl]-1H-indazol-3-yl}amino)pyridine-4-carboxylic acid] | –
5 | < 100 nM | < 100 nM | < 100 nM | – | O=C(O)c1ccncc1Nc1nn(CCN2CCCC2)c2ccc(Cl)cc12 [Example 78, 3-({5-chloro-1-[2-(pyrrolidin-1-yl)ethyl]-1H-indazol-3-yl}amino)pyridine-4-carboxylic acid] | –
6 | < 100 nM | < 100 nM | < 100 nM | > 10000 nM | COCCCn1nc(Nc2cnccc2C(=O)O)c2cc(F)ccc21 [Example 17, 3-{[5-fluoro-1-(methoxypropyl)-1H-indazol-3-yl]amino}pyridine-4-carboxylic acid] | –
7 | < 100 nM | < 100 nM | < 100 nM | 1000 to 10000 nM | O=C(O)c1ccncc1Nc1nn(CCN2CCCC2)c2ccc(F)cc12 [Example 50, 3-({5-fluoro-1-[2-(pyrrolidin-1-yl)ethyl]-1H-indazol-3-yl}amino)pyridine-4-carboxylic acid] | –
8 | < 100 nM | < 100 nM | < 100 nM | 1000 to 10000 nM | Cn1nc(Nc2cnccc2C(=O)O)c2cc(F)ccc21 [Example 7, 3-[(5-fluoro-1-methyl-1H-indazol-3-yl)amino]pyridine-4-carboxylic acid] | –
9 | < 100 nM | < 100 nM | < 100 nM | – | O=C(O)c1ccncc1Nc1nn(CC(O)C(F)(F)F)c2ccc(F)cc12 (centres unmarked) [Example 55, 3-{[5-fluoro-1-(3,3,3-trifluoro-2-hydroxypropyl)-1H-indazol-3-yl]amino}pyridine-4-carboxylic acid] | –
10 | < 100 nM | < 100 nM | < 100 nM | 1000 to 10000 nM | CCCn1nc(Nc2cnccc2C(=O)O)c2cc(C#N)ccc21 [Example 53] | –
11 | < 100 nM | < 100 nM | – | 1000 to 10000 nM | CC(C)Cn1nc(Nc2cnccc2C(=O)O)c2cc(F)ccc21 [Example 25, 3-{[5-fluoro-1-(2-methylpropyl)-1H-indazol-3-yl]amino}pyridine-4-carboxylic acid] | –
12 | < 100 nM | < 100 nM | – | 1000 to 10000 nM | CCCn1nc(Nc2cnccc2C(=O)O)c2cc(F)ccc21 [Example 15, 3-[(5-fluoro-1-propyl-1H-indazol-3-yl)amino]pyridine-4-carboxylic acid] | –
13 | < 100 nM | < 100 nM | – | 1000 to 10000 nM | O=C(O)c1ccncc1Nc1nn(CCC2CC2)c2ccc(F)cc12 [Example 31, 3-{[1-(cyclopropylethyl)-5-fluoro-1H-indazol-3-yl]amino}pyridine-4-carboxylic acid] | –
14 | < 100 nM | < 100 nM | – | 1000 to 10000 nM | CCC(C)n1nc(Nc2cnccc2C(=O)O)c2cc(F)ccc21 (centres unmarked) [Example 26, 3-{[5-fluoro-1-(butan-2-yl)-1H-indazol-3-yl]amino}pyridine-4-carboxylic acid] | –
15 | < 100 nM | < 100 nM | – | 100 to 1000 nM | O=C(O)c1ccncc1Nc1nn(C2CCCC2)c2ccc(F)cc12 [Example 29, 3-[(1-cyclopentyl-5-fluoro-1H-indazol-3-yl)amino]pyridine-4-carboxylic acid] | –
16 | < 100 nM | < 100 nM | < 100 nM | – | O=C(O)c1ccncc1Nc1nn(CCN2CCOCC2)c2ccc(F)cc12 [Example 56, 3-({5-fluoro-1-[2-(morpholin-1-yl)ethyl]-1H-indazol-3-yl}amino)pyridine-4-carboxylic acid] | –
17 | < 100 nM | < 100 nM | – | 1000 to 10000 nM | O=C(O)c1ccncc1Nc1nn(CC2CC2)c2ccc(Cl)cc12 [Example 34, 3-{[5-chloro-1-(cyclopropylmethyl)-1H-indazol-3-yl]amino}pyridine-4-carboxylic acid] | –

More lines, now with the values behind:

Row | Structure (SMILES) | IC50 [1] | IC50 [2] | IC50 [3] | IC50 [4, 5] | IC50 [4, 6]
18 | Cn1nc(Nc2cnccc2C(=O)O)c2cc(C(F)(F)F)ccc21 [Example 14, 3-[(5-trifluoromethyl-1-methyl-1H-indazol-3-yl)amino]pyridine-4-carboxylic acid] | < 100 nM | < 100 nM | < 100 nM | 1000 to 10000 nM | –
19 | CCCn1nc(Nc2cnccc2C(=O)O)c2cccc(F)c21 [Example 20, 3-[(7-fluoro-1-propyl-1H-indazol-3-yl)amino]pyridine-4-carboxylic acid] | < 100 nM | < 100 nM | < 100 nM | 1000 to 10000 nM | –
20 | CN1CCC(CCn2nc(Nc3cnccc3C(=O)O)c3cc(F)ccc32)CC1 [Example 41, 3-({5-fluoro-1-{2-(1-methylpiperidin-4-yl)ethyl]-1H-indazol-3-yl]amino)pyridine-4-carboxylic acid, trifluroacetic acid salt] | < 100 nM | < 100 nM | < 100 nM | – | –
21 | CN(C)CCOCCn1nc(Nc2cnccc2C(=O)O)c2ccccc21 [Example 11, 3-[(1-{2-[2-(dimethylamino)ethoxy]ethyl}-1H-indazol-3-yl)amino]pyridine-4-carboxylic acid] | < 100 nM | < 100 nM | < 100 nM | > 10000 nM | –
22 | CCCn1nc(Nc2cnccc2C(=O)O)c2cccc(C)c21 [Example 45] | – | – | 100 to 1000 nM | 1000 to 10000 nM | –
23 | CN(C)CCCCn1nc(Nc2cnccc2C(=O)O)c2cc(F)ccc21 [Example 43, 3-({1-[4-(dimethylamino)butyl]-5-fluoro-1H-indazol-3-yl}amino)pyridine-4-carboxylic acid, trifluoroacetic acid salt] | < 100 nM | < 100 nM | < 100 nM | – | 1000 to 10000 nM
24 | O=C(O)c1ccncc1Nc1nn(CCC2CCCNC2)c2ccc(F)cc12 (centres unmarked) [Example 47, 3-({5-fluoro-1-[2-(piperidin-3-yl)ethyl]-1H-indazol-3-yl}amino)pyridine-4-carboxylic acid, trifluoroacetic acid salt] | < 100 nM | < 100 nM | < 100 nM | – | > 10000 nM
25 | Cn1nc(Nc2cnccc2C(=O)O)c2ccccc21 [Example 1, 3-[(1-methyl-1H-indazol-3-yl)amino]pyridine-4-carboxylic acid] | < 100 nM | < 100 nM | < 100 nM | 1000 to 10000 nM | –
26 | COc1ccc2c(Nc3cnccc3C(=O)O)nn(C)c2c1 [Example 8, 3-[(6-methoxy-1-methyl-1H-indazol-3-yl)amino]pyridine-4-carboxylic acid] | < 100 nM | < 100 nM | – | 1000 to 10000 nM | –
27 | O=C(O)c1ccncc1Nc1noc2ccccc12 [Example 3, 3-(1,2-benzoxazol-3-ylamino]pyridine-4-carboxylic acid] | < 100 nM | < 100 nM | < 100 nM | – | –
28 | COCCn1nc(Nc2cnccc2C(=O)O)c2ccccc21 [Example 10, 3-{[1-(2-methoxyethyl)-1H-indazol-3-yl]amino}pyridine-4-carboxylic acid] | < 100 nM | < 100 nM | – | 1000 to 10000 nM | –
29 | CN(C)CCOCCn1nc(Nc2cnccc2C(=O)O)c2cc(Cl)ccc21 [Example 40, 3-[(1-{2-[2-(dimethylamino)ethoxy]ethyl}-5-chloro-1H-indazol-3-yl)amino]pyridine-4-carboxylic acid, trifluoroacetic acid salt] | < 100 nM | < 100 nM | < 100 nM | – | –
30 | Cn1nc(Nc2cnccc2C(=O)O)c2c(F)cccc21 [Example 13, 3-[(4-fluoro-1-methyl-1H-indazol-3-yl)amino]pyridine-4-carboxylic acid] | < 100 nM | < 100 nM | < 100 nM | – | –
31 | O=C(O)c1ccncc1Nc1nn(C2CCOC2)c2ccc(Cl)cc12 (centres unmarked) [Example 69, 3-{[5-chloro-1-(tetrahydrofuran-3-yl)-1H-indazol-3-yl]amino}pyridine-4-carboxylic acid] | < 100 nM | < 100 nM | – | 1000 to 10000 nM | –
